{
  "source": "patent US12412916B2",
  "about": "“Fuel cell with polymer electrolyte membrane” (HYUNDAI MOTOR COMPANY, priority 2022, dated 2025)",
  "key": {"[1]": {"assay_type": "physicochemical", "procedure": "The thermal stability was confirmed through thermogravimetric analysis (TGA), and specifically, each compound sample was put into a heating furnace of the thermogravimetric analyzer, and the temperature was elevated from room temperature to 120° C. at 20° C./min and maintained for 10 minutes, thereby removing the remaining water and performing stabilization. Thereafter, the weight change of the sample was measured while cooling to 60° C. at 20° C./min and heating from 60° C. to 800° C. at 10° C./min in a nitrogen atmosphere, and the results are shown in Table 1 below."}, "[2]": {"assay_type": "physicochemical", "procedure": "The solubility of each compound sample was observed by dissolving the same amount in a total of six solvents, including water, dimethylacetamide (DMAc), methanol, ethanol, 1-propanol and 2-propanol, and the results are shown in Table 1 and FIG. 4. In the results, if the phase separation is not visible with the naked eye and the sample is dissolved well, it is indicated as ∘, and if the phase separation is visible or the sample is not dissolved, it is indicated as x.", "remark": "listed apart in the source"}},
  "data": [
    {"molecule": "CC(C)(C)c1cc(C(F)(F)C(F)(F)OC(F)(F)C(F)(F)S(=O)(=O)O)cc(C(C)(C)C)c1O", "note": "[Example 1, sodium 2-(2-(3,5-di-tert-butyl-4-oxidophenyl)-1,1,2,2-tetrafluoroethoxy)-1,1,2,2-tetrafluoroethanesulfonate]", "values": [
      {"measurement": "Thermal stability 5% decomposition temperature", "setting": "[1]", "result": 255, "unit": "°C"},
      {"measurement": "Solubility 1-propanol", "setting": "[2]", "result": "○"},
      {"measurement": "Solubility 2-propanol", "setting": "[2]", "result": "○"},
      {"measurement": "Solubility DMAc", "setting": "[2]", "result": "○"},
      {"measurement": "Solubility Ethanol", "setting": "[2]", "result": "○"},
      {"measurement": "Solubility Methanol", "setting": "[2]", "result": "○"},
      {"measurement": "Solubility in water (in words)", "setting": "[2]", "result": "not dissolved in water"}
    ]}
  ]
}
